Source: patent US20240316045A1, “CYCLOPROPYLAMIDE COMPOUNDS AGAINST PARASITES IN FISH” (Intervet Inc., priority 2021, published 2024)
pEC50: −log10 of the molar value.

What follows are molecules tested on Copepodids (juvenile sea lice stage of Lepeophtheirus salmonis) (assay: Juvenile sea lice contact assay). Conditions: test concentration 10 nM, approx. 24 hours continuous exposure, read-out: Sea lice inhibition (% of dead+damaged copepodids).
Procedure: Copepodids (juvenile sea lice stage of Lepeophtheirus salmonis) were exposed to seawater spiked with declining concentrations of a test compound (dissolved in a DMSO sea-water mixture). Sea lice inhibition (% of dead+damaged copepodids) was assessed after approximately 24 hours of continuous exposure. The vitality of used parasites was confirmed in a negative (solvent) control group.

Q: Cc1ccccc1NC(=O)c1cc(NC(=O)C2C(c3cc(Cl)cc(Cl)c3)C2(Cl)Cl)ccc1Cl (centres unmarked) [Compound 1000] was tested. Which inhibition at 0.01 µM did it give?
A: 100%

Q: Which inhibition at 0.01 µM does the source give for O=C(Nc1ccccc1)c1cc(NC(=O)C2C(c3cc(Cl)cc(Cl)c3)C2(Cl)Cl)ccc1Cl (centres unmarked) [Compound 1004] here?
A: 80%

Q: Which inhibition at 0.01 µM does the source give for N#Cc1ccc(NC(=O)c2cc(NC(=O)C3C(c4cc(Cl)cc(Cl)c4)C3(Cl)Cl)ccc2Cl)cn1 (centres unmarked) [Compound 1011] here?
A: 100%

Q: Which inhibition at 0.01 µM does the source give for O=C(Nc1cncnc1)c1cc(NC(=O)C2C(c3cc(Cl)cc(Cl)c3)C2(Cl)Cl)ccc1Cl (centres unmarked) [Compound 1038] here?
A: 80%

Q: With O=C(Nc1ccc(F)cc1F)c1cc(NC(=O)C2C(c3cc(C(F)(F)F)cc(C(F)(F)F)c3)C2(Cl)Cl)ccc1Cl (centres unmarked) [Compound 1386] as the molecule, how does the inhibition at 0.01 µM read?
A: 80%

Same assay, conditions: test concentration 100 nM, approx. 24 hours continuous exposure, read-out: Sea lice inhibition (% of dead+damaged copepodids)

Q: For Cc1ccc(NC(=O)C2C(c3cc(Cl)cc(Cl)c3)C2(Cl)Cl)cc1C(=O)Nc1ccc(F)cc1 (centres unmarked) [Compound 1001], which inhibition at 0.1 µM is on record?
A: 100%

Q: How did the inhibition at 0.1 µM turn out when N#Cc1cccc(NC(=O)c2cc(NC(=O)C3C(c4cc(Cl)cc(Cl)c4)C3(Cl)Cl)ccc2Cl)c1 (centres unmarked) [Compound 1005] was run?
A: 100%

Q: For O=C(Nc1cccnc1)c1cc(NC(=O)C2C(c3cc(Cl)cc(Cl)c3)C2(Cl)Cl)ccc1Cl (centres unmarked) [Compound 1008], which inhibition at 0.1 µM is on record?
A: 100%

Q: Which inhibition at 0.1 µM does the source give for O=C(Nc1ccc(Cl)nc1)c1cc(NC(=O)C2C(c3cc(Cl)cc(Cl)c3)C2(Cl)Cl)ccc1Cl (centres unmarked) [Compound 1010] here?
A: 100%

Q: How did the inhibition at 0.1 µM turn out when Cc1cc(Cl)cc(C2C(C(=O)Nc3ccc(Cl)c(C(=O)Nc4ccc(F)cc4)c3)C2(Cl)Cl)c1 (centres unmarked) [Compound 1016] was run?
A: 100%

Q: With Cc1cc(Cl)cc(C2C(C(=O)Nc3ccc(Cl)c(C(=O)Nc4c(F)cccc4F)c3)C2(Cl)Cl)c1 (centres unmarked) [Compound 1018] as the molecule, how does the inhibition at 0.1 µM read?
A: 100%

Q: With O=C(Nc1ccc(F)cc1)c1cc(NC(=O)C2C(c3cc(Cl)cc(Cl)c3)C2(Cl)Cl)ccc1Cl (centres unmarked) [Compound 1021] as the molecule, how does the inhibition at 0.1 µM read?
A: 100%

Q: How did the inhibition at 0.1 µM turn out when CN(C(=O)c1cc(NC(=O)C2C(c3cc(Cl)cc(Cl)c3)C2(Cl)Cl)ccc1Cl)c1ccc(F)cc1 (centres unmarked) [Compound 1022] was run?
A: ≥ 80%

Q: With N#Cc1cc(F)ccc1NC(=O)c1cc(NC(=O)C2C(c3cc(Cl)cc(Cl)c3)C2(Cl)Cl)ccc1Cl (centres unmarked) [Compound 1026] as the molecule, how does the inhibition at 0.1 µM read?
A: 100%

Q: With O=C(Nc1ncc(F)cn1)c1cc(NC(=O)C2C(c3cc(Cl)cc(Cl)c3)C2(Cl)Cl)ccc1Cl (centres unmarked) [Compound 1028] as the molecule, how does the inhibition at 0.1 µM read?
A: 100%

Q: How did the inhibition at 0.1 µM turn out when O=C(Nc1cccc(F)n1)c1cc(NC(=O)C2C(c3cc(Cl)cc(Cl)c3)C2(Cl)Cl)ccc1Cl (centres unmarked) [Compound 1030] was run?
A: ≥ 80%

Q: Cc1cc(F)cnc1NC(=O)c1cc(NC(=O)C2C(c3cc(Cl)cc(Cl)c3)C2(Cl)Cl)ccc1Cl (centres unmarked) [Compound 1031] was tested. Which inhibition at 0.1 µM did it give?
A: 100%

Q: Which inhibition at 0.1 µM does the source give for N#Cc1cccc(F)c1NC(=O)c1cc(NC(=O)C2C(c3cc(Cl)cc(Cl)c3)C2(Cl)Cl)ccc1Cl (centres unmarked) [Compound 1040] here?
A: 100%

Q: Nc1cccc(NC(=O)c2cc(NC(=O)C3C(c4cc(Cl)cc(Cl)c4)C3(Cl)Cl)ccc2Cl)n1 (centres unmarked) [Compound 1045] was tested. Which inhibition at 0.1 µM did it give?
A: 100%

Q: Which inhibition at 0.1 µM does the source give for Nc1cccc(NC(=O)c2cc(NC(=O)C3C(c4ccc(F)c(Cl)c4)C3(Cl)Cl)ccc2Cl)n1 (centres unmarked) [Compound 1046] here?
A: 100%

Q: How did the inhibition at 0.1 µM turn out when N#Cc1cc(Cl)cc(C2C(C(=O)Nc3ccc(Cl)c(C(=O)Nc4ncc(F)cc4F)c3)C2(Cl)Cl)c1 (centres unmarked) [Compound 1048] was run?
A: 100%

Q: With O=C(Nc1cncc([N+](=O)[O-])c1)c1cc(NC(=O)C2C(c3cc(Cl)cc(Cl)c3)C2(Cl)Cl)ccc1Cl (centres unmarked) [Compound 1051] as the molecule, how does the inhibition at 0.1 µM read?
A: 100%

Q: With O=C(Nc1ccnc(Cl)c1)c1cc(NC(=O)C2C(c3cc(Cl)cc(Cl)c3)C2(Cl)Cl)ccc1Cl (centres unmarked) [Compound 1055] as the molecule, how does the inhibition at 0.1 µM read?
A: ≥ 80%

Q: How did the inhibition at 0.1 µM turn out when O=C(Nc1ncc(F)c(I)c1F)c1cc(NC(=O)C2C(c3cc(Cl)cc(Cl)c3)C2(Cl)Cl)ccc1Cl (centres unmarked) [Compound 1060] was run?
A: 100%

Q: For Cc1cc(NC(=O)c2cc(NC(=O)C3C(c4cc(Cl)cc(Cl)c4)C3(Cl)Cl)ccc2Cl)cnc1F (centres unmarked) [Compound 1064], which inhibition at 0.1 µM is on record?
A: 100%

Q: How did the inhibition at 0.1 µM turn out when COc1cc(NC(=O)c2cc(NC(=O)C3C(c4cc(Cl)cc(Cl)c4)C3(Cl)Cl)ccc2Cl)ccn1 (centres unmarked) [Compound 1069] was run?
A: 100%

Q: COc1ccc(NC(=O)c2cc(NC(=O)C3C(c4cc(Cl)cc(Cl)c4)C3(Cl)Cl)ccc2Cl)cn1 (centres unmarked) [Compound 1075] was tested. Which inhibition at 0.1 µM did it give?
A: 100%

Q: For COc1ccc(NC(=O)c2cc(NC(=O)C3C(c4ccc(F)c(Cl)c4)C3(Cl)Cl)ccc2Cl)cn1 (centres unmarked) [Compound 1076], which inhibition at 0.1 µM is on record?
A: ≥ 80%

Q: For O=C(Nc1ncc(F)cc1F)c1cc(NC(=O)C2C(c3cc(Cl)cc(C(F)F)c3)C2(Cl)Cl)ccc1Cl (centres unmarked) [Compound 1079], which inhibition at 0.1 µM is on record?
A: 100%

Q: How did the inhibition at 0.1 µM turn out when O=C(Nc1ncc(F)cc1F)c1cc(NC(=O)C2C(c3ccc(Cl)c(C(F)F)c3)C2(Cl)Cl)ccc1Cl (centres unmarked) [Compound 1080] was run?
A: 100%

Q: For O=C(Nc1ncc(F)cc1F)c1cc(NC(=O)C2C(c3cc(F)cc(C(F)F)c3)C2(Cl)Cl)ccc1Cl (centres unmarked) [Compound 1081], which inhibition at 0.1 µM is on record?
A: 100%

Q: For O=C(Nc1ncc(F)cc1F)c1cc(NC(=O)C2C(c3ccc(F)c(C(F)F)c3)C2(Cl)Cl)ccc1Cl (centres unmarked) [Compound 1082], which inhibition at 0.1 µM is on record?
A: 100%

Q: Which inhibition at 0.1 µM does the source give for O=C(Nc1ncc(F)cc1F)c1cc(NC(=O)C2C(c3ccc(C(F)F)c(Cl)c3)C2(Cl)Cl)ccc1Cl (centres unmarked) [Compound 1083] here?
A: 100%

Q: O=C(Nc1ncc(F)cc1F)c1cc(NC(=O)C2C(c3cccc(C(F)F)c3)C2(Cl)Cl)ccc1Cl (centres unmarked) [Compound 1085] was tested. Which inhibition at 0.1 µM did it give?
A: 100%

Q: Nc1c(F)ccc(NC(=O)c2cc(NC(=O)C3C(c4cc(F)cc(C(F)(F)F)c4)C3(Cl)Cl)ccc2Cl)c1F (centres unmarked) [Compound 1132] was tested. Which inhibition at 0.1 µM did it give?
A: 100%

Q: With Nc1c(F)ccc(NC(=O)c2cc(NC(=O)C3C(c4cccc(F)c4)C3(Cl)Cl)ccc2Cl)c1F (centres unmarked) [Compound 1227] as the molecule, how does the inhibition at 0.1 µM read?
A: 100%

Q: With Nc1c(F)ccc(NC(=O)c2cc(NC(=O)C3C(c4cccc(C(F)(F)F)c4)C3(Cl)Cl)ccc2Cl)c1F (centres unmarked) [Compound 1243] as the molecule, how does the inhibition at 0.1 µM read?
A: 100%

Q: With Nc1c(F)ccc(NC(=O)c2cc(NC(=O)C3C(c4cccc(Cl)c4)C3(Cl)Cl)ccc2Cl)c1F (centres unmarked) [Compound 1248] as the molecule, how does the inhibition at 0.1 µM read?
A: 100%

Q: O=C(Nc1ccc2nccn2c1)c1cc(NC(=O)C2C(c3cc(Cl)cc(Cl)c3)C2(Cl)Cl)ccc1Cl (centres unmarked) [Compound 1373] was tested. Which inhibition at 0.1 µM did it give?
A: 100%

Q: O=C(Nc1ncc(F)cc1F)c1c(Cl)ccc(NC(=O)C2C(c3cc(Cl)cc(Cl)c3)C2(Cl)Cl)c1F (centres unmarked) [Compound 1381] was tested. Which inhibition at 0.1 µM did it give?
A: 100%

Q: How did the inhibition at 0.1 µM turn out when Cc1ccc(NC(=O)C2C(c3ccc(Cl)c(Cl)c3)C2(Cl)Cl)c(F)c1C(=O)Nc1ncc(F)cc1F (centres unmarked) [Compound 1382] was run?
A: 100%

Q: Which inhibition at 0.1 µM does the source give for O=C(Nc1ncc(F)cc1F)c1cc(NC(=O)C2C(c3cc(Cl)c(Cl)c(Cl)c3)C2(Cl)Cl)ccc1Cl (centres unmarked) [Compound 1384] here?
A: 100%

Each molecule was assayed on Mobile stages of sea lice (pre-adults, adults of Lepeophtheirus salmonis) (assay: Adult sea lice contact assay). Conditions: pre-adult/adult L. salmonis, assessed after approx. 1 and 24 hours, time of EC50 not stated, read-out: EC50 (sea lice inhibition, dead+damaged).
Procedure: Mobile stages of sea lice (i.e., pre-adults, adults of Lepeophtheirus salmonis) were exposed to seawater spiked with declining concentrations of a test compound (dissolved in a PEG sea-water mixture). Sea lice inhibition (% of dead+damaged sea lice) was assessed after approximately 1 and 24 hours of continuous exposure in comparison to a negative (solvent) control group.

Q: O=C(Nc1c(F)cc(F)cc1F)c1cc(NC(=O)C2C(c3cc(Cl)cc(Cl)c3)C2(Cl)Cl)ccc1Cl (centres unmarked) [Compound 1006] was tested. Which pEC50 did it give?
A: ≥ 9.00

Q: How did the pEC50 turn out when O=C(Nc1ncc(F)cc1F)c1cc(NC(=O)[C@H]2[C@H](c3ccc(Cl)c(Cl)c3)C2(Cl)Cl)ccc1Cl [Compound 1041] was run?
A: 8.00 to 9.00

Q: How did the pEC50 turn out when O=C(Nc1ncc(F)cc1F)c1cc(NC(=O)[C@H]2[C@H](c3ccc(F)c(Cl)c3)C2(Cl)Cl)ccc1Cl [Compound 1042] was run?
A: 8.00 to 9.00

Q: With O=C(Nc1ccc(F)cc1F)c1cc(NC(=O)[C@H]2[C@H](c3cc(Cl)cc(Cl)c3)C2(Cl)Cl)ccc1F [Compound 1091] as the molecule, how does the pEC50 read?
A: 8.00 to 9.00

Q: O=C(Nc1c(F)cc(F)cc1F)c1cc(NC(=O)[C@H]2[C@H](c3cc(Cl)cc(Cl)c3)C2(Cl)Cl)ccc1Cl [Compound 1092] was tested. Which pEC50 did it give?
A: 7.60 to 9.00
